In assay [1] the target is T1, MKK7 (Homo sapiens, UniProt O14733).
T1 sequence (O14733 1-419): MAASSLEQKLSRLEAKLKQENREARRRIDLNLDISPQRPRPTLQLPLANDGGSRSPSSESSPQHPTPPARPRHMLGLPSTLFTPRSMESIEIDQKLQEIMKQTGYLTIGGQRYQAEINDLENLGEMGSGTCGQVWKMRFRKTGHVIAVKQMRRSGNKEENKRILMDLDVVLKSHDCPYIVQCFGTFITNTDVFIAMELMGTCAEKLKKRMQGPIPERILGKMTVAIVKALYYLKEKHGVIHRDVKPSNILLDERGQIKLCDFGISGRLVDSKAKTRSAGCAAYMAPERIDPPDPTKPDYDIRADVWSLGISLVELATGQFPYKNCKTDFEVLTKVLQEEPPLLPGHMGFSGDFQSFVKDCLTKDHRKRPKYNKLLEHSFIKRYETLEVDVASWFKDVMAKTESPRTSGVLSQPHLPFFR
Nature of the assay: KINOMEscan competition binding assay, MKK7. Particulars: ratio PoC (off-target)/PoC (MKK4). Set-up: M1/R419; host or cells: HEK-293. As for the experimental part:
(§1) The assay was performed by combining three components: DNA-tagged kinase; immobilized ligand; and a test compound. The ability of the test compound to compete with the immobilized ligand was measured via quantitative PCR of the DNA tag. The technology is described in detail in Fabian, M. A. et al. A small molecule-kinase interaction map for clinical kinase inhibitors. Nat. […] Nat.
(§2) For investigation of the affinity to MKK4, BRaf, MKK7 and JNK1, the kinases were produced in HEK-293 cells and subsequently tagged with DNA for qPCR detection. […] The liganded beads were blocked with excess biotin and washed with blocking buffer (SEABLOCK™ (Pierce), 1% BSA, 0.05% TWEEN®20, 1 mM DTT) to remove unbound ligand and to reduce nonspecific binding. […] All reactions were performed in polystyrene 96-well plates in a final volume of 0.135 mL. […] The kinase concentration in the eluates was measured by qPCR.
(§3) The test compounds were provided as 10 mM stock solutions. The test solutions at indicated final concentrations were prepared at DiscoverX.
(§4) Potency of representative examples against the protein kinases MKK4, BRaf, MKK7 and JNK1 expressed as residual percent of control binding (PoC), was determined at a concentration of 100 nM. The determined potencies are categorized as follows:
(§5) The binding selectivity of representative examples against the protein kinases BRaf, MKK7 and JNK1, altogether denominated as “off-targets” is determined by the ratios of PoC (off-target)/PoC (MKK4).

In assay [2] the target is T2, MKK4 (Homo sapiens, UniProt P45985).
T2 construct: S84/D399; host or cells: HEK-293
T2 sequence (P45985 84-399): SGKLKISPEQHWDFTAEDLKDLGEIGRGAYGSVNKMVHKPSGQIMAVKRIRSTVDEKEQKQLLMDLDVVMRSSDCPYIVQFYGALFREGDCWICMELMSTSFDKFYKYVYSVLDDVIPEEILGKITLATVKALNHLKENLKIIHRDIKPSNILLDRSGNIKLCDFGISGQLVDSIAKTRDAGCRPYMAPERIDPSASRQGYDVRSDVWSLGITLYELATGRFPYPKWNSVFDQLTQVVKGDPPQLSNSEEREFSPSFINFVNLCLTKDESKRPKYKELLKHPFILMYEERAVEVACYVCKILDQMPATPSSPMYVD
In words: KINOMEscan competition binding assay, MKK4. To be noted: residual percent of control binding (PoC) at 100 nM. As for the experimental part: as §1, §2, §3
Potency of representative examples against the protein kinases MKK4, BRaf, MKK7 and JNK1 expressed as residual percent of control binding (PoC), was determined at a concentration of 100 nM. The determined potencies are categorized as follows: […]

Assay [3] has as its target T3, JNK1 (Homo sapiens, UniProt P45983). Nature of the assay: KINOMEscan competition binding assay, JNK1. Also noted: M1/Q384; host or cells: HEK-293. To be noted: ratio PoC (off-target)/PoC (MKK4). As for the experimental part: as §1, §2, §3, §4, §5
Target sequence in this assay (P45983 1-384 isoform P45983-2): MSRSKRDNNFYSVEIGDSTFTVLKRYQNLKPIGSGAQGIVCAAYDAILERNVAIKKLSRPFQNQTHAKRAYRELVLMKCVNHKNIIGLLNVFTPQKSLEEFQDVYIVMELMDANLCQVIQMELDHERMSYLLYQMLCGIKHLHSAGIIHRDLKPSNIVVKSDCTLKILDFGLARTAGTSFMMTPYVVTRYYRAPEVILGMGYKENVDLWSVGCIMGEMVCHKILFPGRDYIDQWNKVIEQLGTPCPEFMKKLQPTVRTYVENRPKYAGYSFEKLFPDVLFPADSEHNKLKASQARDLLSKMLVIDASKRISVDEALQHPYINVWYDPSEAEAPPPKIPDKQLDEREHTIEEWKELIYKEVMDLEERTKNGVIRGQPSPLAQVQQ
The target of assay [4] is T4, BRaf (Homo sapiens, UniProt P15056).
T4 construct: purchased ProQinase GmbH, Freiburg, Germany (33PanQinase Assay Service)
In words: KINOMEscan competition binding assay, BRaf. To be noted: ratio PoC (off-target)/PoC (MKK4). As for the experimental part: as §1, §2, §3, §4, §5

The target of assay [5] is T5, MKK4 (Homo sapiens, UniProt P45985).
T5 construct: purchased ProQinase GmbH, Freiburg, Germany (33PanQinase Assay Service)
T5 sequence (P45985 1-399): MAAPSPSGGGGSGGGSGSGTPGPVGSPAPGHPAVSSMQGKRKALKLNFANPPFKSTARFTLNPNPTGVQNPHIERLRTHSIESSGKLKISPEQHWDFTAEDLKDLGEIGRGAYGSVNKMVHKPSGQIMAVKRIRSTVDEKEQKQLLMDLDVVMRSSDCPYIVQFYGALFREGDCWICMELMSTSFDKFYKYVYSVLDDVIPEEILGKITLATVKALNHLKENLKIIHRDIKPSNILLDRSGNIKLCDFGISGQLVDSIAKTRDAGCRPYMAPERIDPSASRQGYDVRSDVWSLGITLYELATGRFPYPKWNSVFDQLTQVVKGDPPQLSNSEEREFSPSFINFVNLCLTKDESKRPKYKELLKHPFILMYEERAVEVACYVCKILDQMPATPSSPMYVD
Nature of the assay: 33PanQinase enzyme assay, MKK4. It is filed as biochemical. To be noted: assay 'IC50'; read-out: Potency MKK4 (IC50). A digest of the protocol:
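Inhibition measured as 33Pi transfer to substrate after a 60-min, 30 °C reaction, acid-stopped and scintillation-counted.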

Assay [6] deals with T3, JNK1. Nature of the assay: 33PanQinase enzyme assay, JNK1. To be noted: ratio IC50(JNK1)/IC50(MKK4). Also noted: purchased ProQinase GmbH, Freiburg, Germany (33PanQinase Assay Service). It is filed as biochemical. In outline:
(§6)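 Off-target selectivity is the ratio IC50(off-target)/IC50(MKK4), with IC50 values from least-squares fitting and single-point data as % residual activity. Reactions of enzyme/substrate mix, ATP and compound ran 60 min at 30° C before H3PO4 stop; ^33P incorporation read on a scintillation counter.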
Target sequence in this assay (P45983 whole entry): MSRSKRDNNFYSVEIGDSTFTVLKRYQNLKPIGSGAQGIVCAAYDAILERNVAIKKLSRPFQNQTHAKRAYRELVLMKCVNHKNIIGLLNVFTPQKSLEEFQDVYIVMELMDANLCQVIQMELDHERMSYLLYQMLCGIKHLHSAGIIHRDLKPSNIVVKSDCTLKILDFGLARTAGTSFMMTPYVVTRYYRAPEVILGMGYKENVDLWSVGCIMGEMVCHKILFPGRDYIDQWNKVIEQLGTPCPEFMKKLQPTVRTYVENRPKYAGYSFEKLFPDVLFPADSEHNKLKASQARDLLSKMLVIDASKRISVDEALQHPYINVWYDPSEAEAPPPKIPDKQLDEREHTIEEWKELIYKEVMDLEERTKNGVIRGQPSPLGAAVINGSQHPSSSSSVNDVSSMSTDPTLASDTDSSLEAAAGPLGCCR

Assay [7] has as its target T4, BRaf. Nature of the assay: 33PanQinase enzyme assay, BRaf. To be noted: ratio IC50(BRaf)/IC50(MKK4). It is filed as biochemical. A digest of the protocol: as §6
In assay [8] the target is T1, MKK7. Nature of the assay: 33PanQinase enzyme assay, MKK7. Format: biochemical. Set-up: purchased ProQinase GmbH, Freiburg, Germany (33PanQinase Assay Service). To be noted: ratio IC50(MKK7)/IC50(MKK4). In outline: as §6

Where only a bound is given, the exact number is not on record here.

T4 sequence (P15056 whole entry, species assumed): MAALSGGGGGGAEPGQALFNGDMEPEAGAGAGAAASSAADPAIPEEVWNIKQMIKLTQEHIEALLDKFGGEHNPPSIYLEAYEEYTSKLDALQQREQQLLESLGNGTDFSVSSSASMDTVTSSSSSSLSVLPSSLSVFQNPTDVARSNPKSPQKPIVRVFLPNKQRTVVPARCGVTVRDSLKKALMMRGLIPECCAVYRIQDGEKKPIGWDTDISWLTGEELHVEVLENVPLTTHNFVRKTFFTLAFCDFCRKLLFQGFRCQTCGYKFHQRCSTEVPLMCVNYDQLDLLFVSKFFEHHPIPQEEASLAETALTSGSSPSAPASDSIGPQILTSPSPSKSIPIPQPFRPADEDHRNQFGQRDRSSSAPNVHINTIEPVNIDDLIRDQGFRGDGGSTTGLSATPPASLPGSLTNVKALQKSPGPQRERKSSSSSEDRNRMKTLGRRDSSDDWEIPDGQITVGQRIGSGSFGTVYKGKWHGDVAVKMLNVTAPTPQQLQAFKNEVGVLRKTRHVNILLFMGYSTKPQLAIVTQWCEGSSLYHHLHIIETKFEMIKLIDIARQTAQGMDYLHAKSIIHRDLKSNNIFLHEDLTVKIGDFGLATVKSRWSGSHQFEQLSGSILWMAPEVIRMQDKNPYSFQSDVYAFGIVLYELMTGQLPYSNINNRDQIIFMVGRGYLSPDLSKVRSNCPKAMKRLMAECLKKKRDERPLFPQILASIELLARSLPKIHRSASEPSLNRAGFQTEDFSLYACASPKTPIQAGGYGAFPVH

Regarding `COc1ccc(-c2cnc3[nH]cc(C(=O)c4c(F)ccc(NS(=O)(=O)Cc5ccccc5)c4F)c3c2)cc1` [Example 26, N-(2,4-difluoro-3-(5-(4-methoxyphenyl)-1H-pyrrolo[2,3-b]pyridine-3-carbonyl)phenyl)-1-phenylmethanesulfonamide], at MKK7 [1], the “selectivity based on % Ctrl @100 nM vs. MKK7” value is listed as “++ (100 ≥ ratio > 10)”. At MKK4 [2], the “MKK4 [% Ctrl @ 100 nM” value is reported as “++ (1 ≤ PoC < 3)”. The “selectivity based on % Ctrl @100 nM vs. JNK1” value on JNK1 [3] is reported as “++ (100 ≥ ratio > 10)”. Also, on BRaf [4], the “selectivity based on % Ctrl @100 nM vs. Braf” value is “++ (100 ≥ ratio > 10)”.

By IC50 is commonly meant the concentration that gives 50% inhibition. As to `O=C(c1cccc(NS(=O)(=O)Cc2ccccc2)c1F)c1c[nH]c2ncc(-c3cc4c(cc3Cl)OCCO4)cc12` [Example 127, N-(3-(5-(7-chloro-2,3-dihydrobenzo[b][1,4]dioxin-6-yl)-1H-pyrrolo[2,3-b]pyridine-3-carbonyl)-2-fluorophenyl)-1-phenylmethanesulfonamide], on MKK4 [2], the “MKK4 [% Ctrl @ 100 nM” value was “++ (1 ≤ PoC < 3)”. Besides, at MKK4 [5], the IC50 is 100 to 1000 nM.

Consider `O=C(c1cccc(NS(=O)(=O)Cc2ccccc2)c1F)c1c[nH]c2ncc(-c3cccnc3)cc12` [Example 132, N-(2-fluoro-3-(5-(pyridin-3-yl)-1H-pyrrolo[2,3-b]pyridine-3-carbonyl)phenyl)-1-phenylmethanesulfonamide], for which the “Selectivity JNK1, IC50(off-target)/IC50(MKK4)” value (“Selectivity JNK1” for short) on JNK1 [6] was “◯ (3 ≥ IC50(off-target)/IC50(MKK4))”. Also, the “Selectivity Braf, IC50(off-target)/IC50(MKK4)” value (“Selectivity Braf” for short) on BRaf [7] was “++ (100 ≥ IC50(off-target)/IC50(MKK4) > 10)”. Also, the IC50 on MKK4 [5] lay within 100 to 1000 nM. The “Selectivity IVIKK7, IC50(off-target)/IC50(MKK4)” value (“Selectivity IVIKK7” for short) on MKK7 [8] is “+++ (IC50(off-target)/IC50(MKK4) > 100)”.

For `CS(=O)(=O)Nc1c(F)ccc(C(=O)c2c[nH]c3ncc(-c4cccc5ccccc45)cc23)c1F` [Example 214, N-(2,6-difluoro-3-(5-(naphthalen-1-yl)-1H-pyrrolo[2,3-b]pyridine-3-carbonyl)phenyl)methanesulfonamide], on JNK1 [6], the “Selectivity JNK1” value was “++ (100 ≥ IC50(off-target)/IC50(MKK4) > 10)”. The “Selectivity Braf” value at BRaf [7] is on record as “+++ (IC50(off-target)/IC50(MKK4) > 100)”. Moreover, the IC50 at MKK4 [5] lay within 100 to 1000 nM. Besides, the “Selectivity IVIKK7” value at MKK7 [8] was “+++ (IC50(off-target)/IC50(MKK4) > 100)”.

Consider `CCCS(=O)(=O)Nc1ccc(F)c(C(=O)c2c[nH]c3ncc(-c4ccc5c(c4)C=C(C)N=S5(C)=O)cc23)c1F` (centres unmarked) [Example 95, N-(3-(5-(1,3-dimethyl-1-oxido-1l4-benzo[e][1,2]thiazin-6-yl)-1H-pyrrolo[2,3-b]pyridine-3-carbonyl)-2,4-difluorophenyl)propane-1-sulfonamide], for which, at JNK1 [6], the “Selectivity JNK1” value is “◯ (3 ≥ IC50(off-target)/IC50(MKK4))”. Also, on BRaf [7], the “Selectivity Braf” value is “◯ (3 ≥ IC50(off-target)/IC50(MKK4))”. The IC50 at MKK4 [5] lay within 100 to 1000 nM. Besides, on MKK7 [8], the “Selectivity IVIKK7” value was “+++ (IC50(off-target)/IC50(MKK4) > 100)”.

Take `O=C(c1ccc(F)c(NS(=O)(=O)Cc2ccccc2)c1)c1c[nH]c2ncc(-c3ccc(Cl)cc3)cc12` [Example 133, N-(5-(5-(4-chlorophenyl)-1H-pyrrolo[2,3-b]pyridine-3-carbonyl)-2-fluorophenyl)-1-phenylmethanesulfonamide]: on JNK1 [6], the “Selectivity JNK1” value is “◯ (3 ≥ IC50(off-target)/IC50(MKK4))”. Further, the “Selectivity Braf” value on BRaf [7] is recorded as “++ (100 ≥ IC50(off-target)/IC50(MKK4) > 10)”. In addition, the IC50 at MKK4 [5] lay within 100 to 1000 nM. Moreover, the “Selectivity IVIKK7” value at MKK7 [8] is on record as “+++ (IC50(off-target)/IC50(MKK4) > 100)”.

Turning to `CCCS(=O)(=O)Nc1c(F)ccc(C(=O)c2c[nH]c3ncc(-c4ccc(C)nc4Cl)cc23)c1F` [Example 166, N-(3-(5-(2-chloro-6-methylpyridin-3-yl)-1H-pyrrolo[2,3-b]pyridine-3-carbonyl)-2,6-difluorophenyl)propane-1-sulfonamide], on JNK1 [6], the “Selectivity JNK1” value is on record as “+++ (IC50(off-target)/IC50(MKK4) > 100)”. The “Selectivity Braf” value at BRaf [7] is listed as “+++ (IC50(off-target)/IC50(MKK4) > 100)”. Further, on MKK4 [5], the concentration for half-maximal inhibition (IC50) was less than 100 nM. The “Selectivity IVIKK7” value at MKK7 [8] is listed as “+++ (IC50(off-target)/IC50(MKK4) > 100)”.

Consider `CCCS(=O)(=O)Nc1c(F)ccc(C(=O)c2c[nH]c3ncc(-c4cnc(-c5ccc6nc[nH]c6c5)nc4)cc23)c1F` [Example 210, N-(3-(5-(2-(1H-benzo[d]imidazol-6-yl)pyrimidin-5-yl)-1H-pyrrolo[2,3-b]pyridine-3-carbonyl)-2,6-difluorophenyl)propane-1-sulfonamide], for which the “Selectivity JNK1” value at JNK1 [6] was “+ (10 ≥ IC50(off-target)/IC50(MKK4) > 3)”. The “Selectivity Braf” value on BRaf [7] is “++ (100 ≥ IC50(off-target)/IC50(MKK4) > 10)”. In addition, the IC50 at MKK4 [5] fell in the range of 1000 to 10000 nM. The “Selectivity IVIKK7” value on MKK7 [8] is “++ (100 ≥ IC50(off-target)/IC50(MKK4) > 10)”.

Consider `CCCS(=O)(=O)Nc1ccc(F)c(C(=O)c2c[nH]c3ncc(-c4ccccc4C(F)(F)F)cc23)c1F` [Example 97, N-(2,4-difluoro-3-(5-(2-(trifluoromethyl)phenyl)-1H-pyrrolo[2,3-b]pyridine-3-carbonyl)phenyl)propane-1-sulfonamide], for which the “Selectivity JNK1” value at JNK1 [6] is given as “+ (10 ≥ IC50(off-target)/IC50(MKK4) > 3)”. Also, on BRaf [7], the “Selectivity Braf” value is “◯ (3 ≥ IC50(off-target)/IC50(MKK4))”. The IC50 on MKK4 [5] is 100 to 1000 nM. Also, on MKK7 [8], the “Selectivity IVIKK7” value is on record as “+++ (IC50(off-target)/IC50(MKK4) > 100)”.

Consider `CCCS(=O)(=O)Nc1ccc(F)c(C(=O)c2c[nH]c3ncc(-c4cnccn4)cc23)c1F` [Example 89, N-(2,4-difluoro-3-(5-(pyrazin-2-yl)-1H-pyrrolo[2,3-b]pyridine-3-carbonyl)phenyl)propane-1-sulfonamide], for which the “Selectivity JNK1” value on JNK1 [6] was “◯ (3 ≥ IC50(off-target)/IC50(MKK4))”. In addition, the “Selectivity Braf” value at BRaf [7] is reported as “◯ (3 ≥ IC50(off-target)/IC50(MKK4))”. The IC50 on MKK4 [5] lay within 1000 to 10000 nM. In addition, the “Selectivity IVIKK7” value on MKK7 [8] is “++ (100 ≥ IC50(off-target)/IC50(MKK4) > 10)”.

(Values after patent US11912701B2, “Protein kinase inhibitors for promoting liver regeneration or reducing or preventing hepatocyte death” (HEPAREGENIX GMBH, priority 2018, dated 2024).)
